Measured values as given in patent US20180022780A1, “STABILIZATION ADRENOMEDULLIN DERIVATIVES AND USE THEREOF” (priority 2014, published 2018).
One block for each molecule: values may come before it. Bridge positions count the residues as written; N and C are the ends. Square brackets hold non-standard residues; d marks the D form. Ends that are not written are not given here. Peptide text beside a SMILES is read from it. * marks the point of attachment. X1 = CN(C)c1ccc2c(c1)Oc1cc(N(C)C)ccc1C21OC(=O)c2ccc(C(=O)*)cc21; Palmitoyl = CCCCCCCCCCCCCCCC(=O)*; NMeK = CN[C@@H](CCCCN)C(=O)O; Dap = NC[C@H](N)C(=O)O

Legend:
[1] = Stability in human blood plasma (TAM-labeled analogues); assay type: in vitro ADME; settings: 10E-5 M, 37° C., two phase decay, N-terminally TAM-labeled analogues, read-out: HalfLife (Slow) (converted)
From the text: FIG. 3: Stability of peptides in plasma calculated with GraphPad Prism 5 (GraphPad Software) using two phase decay analysis for the determination of half-life (slow) (Test 1e). N-terminally 6-carboxytetramethylrhodamine-(TAM)-labeled analogues of Control: TAM[G^14]ADM(14-52); Example 18: TAM[K^14(PAM), (Dpr^16, E^21)lac]ADM(14-52); and Example 27: TAM[K^14(PAM), (Dpr^16, E^21)lac, Nα-Me-K^46]ADM(14-52).
The stability of the peptides was investigated using N-terminally 6-carboxytetramethylrhodamine-(TAM)-labeled analogues.
Fluorescently labeled ADM analogues were prepared by using solid phase peptide synthesis (SPPS) as described before (general method for peptide synthesis). Manual coupling of 6-carboxytetramethylrhodamine (TAM) to the N-terminus of the peptides was carried out with a 3-fold molar excess of the fluorescence dye, 2-(1H-benzotriazol-1-yl)-1,1,3,3-tetramethyluronium hexafluorophosphate (HBTU) and N,N-Diisopropylethylamine (DIPEA) in DMF under constant shaking for 24 h the resin as described recently (Bohme D., Beck-Sickinger A. G. ChemMedChem 2015, 10: 804-14). The identity of the peptides was confirmed by mass spectrometry with an MALDI-MS (UltraflexIII, Bruker) and an ESI-MS (HCT, Bruker). The observed masses were in correspondence to the calculated masses.
The peptides were dissolved in 1.5 ml of human blood plasma to a concentration of 10E-5 M and incubated at 37° C. under constant shaking. […] The samples were analyzed by RP-HPLC using a Varian VariTide RPC column (particle size 6 μm; pore size 200 Å; 250×4.6 mm) with linear gradients of 0.1% TFA in water and 0.08% TFA in ACN; fluorescence emission was detected at λ=573 nm. The percentage of intact peptide was determined by peak integration. […] The stability of the peptides was calculated with GraphPad Prism 5 (GraphPad Software) using a two phase exponential decay function for the determination of slow-decay phase half-lives (ln(2)/Kslow; Kslow: rate constant of slow part of exponential decay) (Table 3 and FIG. 3).

[2] = tested on: mean arterial blood pressure; settings: doses of ≦300 μg/kg body weight; reference WO 2013/064508 A1; cited from earlier work
[3] = only at −80° C. under argon atmosphere; cited from earlier work
[4] = tested on: receptor in rat spleen membranes; settings: cited from earlier work
guinea pig atria = settings: cited from earlier work

half-life at 0.0001 M [1]: > 96 h
Molecule: CCCCCCCCCCCCCCCC(=O)NCCCC[C@H](NC(=O)c1ccc2c(c1)C1(OC2=O)c2ccc(N(C)C)cc2Oc2cc(N(C)C)ccc21)C(=O)NCC(=O)N[C@H]1CNC(=O)CC[C@@H](C(=O)N[C@H](C(=O)N[C@H](C(=O)N[C@@H](CCC(N)=O)C(=O)N[C@@H](CCCCN)C(=O)N[C@@H](CC(C)C)C(=O)N[C@@H](C)C(=O)N[C@@H](Cc2c[nH]cn2)C(=O)N[C@@H](CCC(N)=O)C(=O)N[C@H](C(=O)N[C@@H](Cc2ccc(O)cc2)C(=O)N[C@@H](CCC(N)=O)C(=O)N[C@@H](Cc2ccccc2)C(=O)N[C@H](C(=O)N[C@@H](CC(=O)O)C(=O)N[C@@H](CCCCN)C(=O)N[C@@H](CC(=O)O)C(=O)N[C@@H](CCCCN)C(=O)N[C@@H](CC(=O)O)C(=O)N[C@@H](CC(N)=O)C(=O)N[C@H](C(=O)N[C@@H](C)C(=O)N2CCC[C@H]2C(=O)N[C@@H](CCCNC(=N)N)C(=O)N[C@@H](CO)C(=O)N(C)[C@@H](CCCCN)C(=O)N[C@H](C(=O)N[C@@H](CO)C(=O)N2CCC[C@H]2C(=O)N[C@@H](CCC(N)=O)C(=O)NCC(=O)N[C@@H](Cc2ccc(O)cc2)C(N)=O)[C@@H](C)CC)C(C)C)[C@@H](C)O)[C@@H](C)CC)C(C)C)[C@@H](C)O)NC(=O)[C@H]([C@@H](C)O)NC(=O)CNC(=O)[C@H](Cc2ccccc2)NC(=O)[C@H](CCCNC(=N)N)NC1=O [TAM-27, TAM[K^14(PAM), (Dpr^16, E^21)lac, Nα-Me-K^46]ADM(14-52)] (X1-K(Palmitoyl)G[Dap]RFGTETVQKLAHQIYQFTDKDKDNVAPRS[NMeK]ISPQGY-NH2; lactam 3-8)

half-life at 0.0001 M [1]: 9 h
Molecule: CC[C@H](C)[C@H](NC(=O)[C@H](CCC(N)=O)NC(=O)[C@H](Cc1c[nH]cn1)NC(=O)[C@H](C)NC(=O)[C@H](CC(C)C)NC(=O)[C@H](CCCCN)NC(=O)[C@H](CCC(N)=O)NC(=O)[C@@H](NC(=O)[C@@H](NC(=O)[C@@H]1CSSC[C@H](NC(=O)CNC(=O)CNC(=O)c2ccc3c(c2)C2(OC3=O)c3ccc(N(C)C)cc3Oc3cc(N(C)C)ccc32)C(=O)N[C@@H](CCCNC(=N)N)C(=O)N[C@@H](Cc2ccccc2)C(=O)NCC(=O)N[C@@H]([C@@H](C)O)C(=O)N1)[C@@H](C)O)C(C)C)C(=O)N[C@@H](Cc1ccc(O)cc1)C(=O)N[C@@H](CCC(N)=O)C(=O)N[C@@H](Cc1ccccc1)C(=O)N[C@H](C(=O)N[C@@H](CC(=O)O)C(=O)N[C@@H](CCCCN)C(=O)N[C@@H](CC(=O)O)C(=O)N[C@@H](CCCCN)C(=O)N[C@@H](CC(=O)O)C(=O)N[C@@H](CC(N)=O)C(=O)N[C@H](C(=O)N[C@@H](C)C(=O)N1CCC[C@H]1C(=O)N[C@@H](CCCNC(=N)N)C(=O)N[C@@H](CO)C(=O)N[C@@H](CCCCN)C(=O)N[C@H](C(=O)N[C@@H](CO)C(=O)N1CCC[C@H]1C(=O)N[C@@H](CCC(N)=O)C(=O)NCC(=O)N[C@@H](Cc1ccc(O)cc1)C(N)=O)[C@@H](C)CC)C(C)C)[C@@H](C)O [TAM-control, TAM[G^14]ADM(14-52), reference compound]

Molecule: adrenomedullin (human) [wt ADM]
duration of blood pressure reduction [2]: ≤ 4 h

Molecule: amylin-(1-8) (KCNTATCA; ends and bridges not checked; cysteine pairing not given here; UniProt P10997 34-41, looked up, fragment) [native octapeptide amylin (1-8), literature]
time stable on storage [3]: 6 month

Molecule: cyclo [Asp^2, Lys^7]-CGRP
decrease in affinity to the receptor [4]: 50%
biological activity (agonist function) (guinea pig atria): loss of agonist function
